According to US9980928B2, “Hydroxy aliphatic substituted phenyl aminoalkyl ether derivatives” (PROUS INSTITUTE FOR BIOMEDICAL RESEARCH, S.A., priority 2012, dated 2018):

Assays:
mice [1] = test: Novel object recognition test (acute); type: in vivo
Text: The novel object recognition task is used to evaluate cognition, particularly memory recognition, in rodent models of CNS disorders. This test is based on the spontaneous tendency of rodents to spend more time exploring a novel object than a familiar one. The choice to explore the novel object reflects the use of learning and memory recognition. The novel object recognition test provides a measure of activity in a novel environment allowing tests for emotional reactivity and also for novel object recognition, a cognitive domain that depends on hippocampal functional integrity. Animals were habituated to the presence of two identical objects (LEGO® pieces) during a single session of 5 minutes (training) and sniffing (exploration of an object was defined as pointing the nose to the object at a distance of <1 cm and/or touching it with the nose). Mice were injected with saline or with the compound to be tested and returned to their home cages. At 24 hours the animals were introduced in the same open field again with the same two items (familiarization), and again exploration in each of them for 5 minutes was registered. One hour later, the mice were retested in the open field for 3 minutes, but this time with one of the “familiar” objects replaced by a new one (test). To analyze cognitive performance, a discrimination index was calculated as the difference in time exploring the novel and familiar object, expressed as the ratio of the total time spent exploring both objects, which made it possible to adjust for any differences in total exploration time. This test is useful for assessing impaired cognitive ability in transgenic strains of mice and evaluating novel chemical entities for their effect on cognition (Zhang, R. J Alzheimers Dis 2012, 31(4): 801-12). […] Neuroplasticity 2007, 26496).

mice [2] = test: Mouse formalin assay (analgesic activity); type: in vivo
Method: The analgesic activity of the compounds of the present invention is determined making use of the mouse formalin test described in Hunskaar, S. J Neurosci Methods 1985, 14(1): 69-76. The hind paw licking time was measured at 5-minute intervals for 30 minutes following subplantar injection of formalin (0.02 mL, 2%). Statistical analysis using one-way ANOVA followed by Dunnett's test was applied for comparison between the test substance-treated and vehicle control groups. P<0.05 was considered significant.

[3] = test system: J20 mouse model and wild-type mice; test: Morris water maze test in old wild-type and J20 mice; type: in vivo; settings: 30 mg/kg i.p.
Text: Familial Alzheimer's disease (AD) is associated with mutations that lead to the production of the β-amyloid 42 (Aβ42) peptide, a constituent of the characteristic amyloid plaques diagnostic of AD. These mutations occur at the proteolytic cleavage sites in the gene encoding the amyloid precursor protein (APP), and in the genes for presenilins 1 and 2 (PSEN1 and PSEN2), enzymes involved in APP cleavage. […] The J20 mouse model is a suitable experimental animal model for testing the activity of drugs on cognitive performance because these mice show robust impairment in spatial learning and spatial reference memory (Karl, T. et al. Behav Brain Res 2012, 228(2): 392-97; Garcia-Barroso, C. et al. Neuropharmacology 2013, 64: 114-23). The effects of Example 2 on spatial memory and learning in the J20 mouse model using the Morris water maze test (Vorhees, Ch. V. and Williams, M. T. Nat Protoc 2006, 1(2): 848-58) were investigated in our laboratory.
The Morris water maze test was applied to 45 old male mice. Twenty wild-type and 25 J20 mice (n=10-11 for each group of treatment/genotype; 10-14 months of age) were treated with vehicle or Example 2 at 30 mg/kg i.p. Percent times in quadrants, escape latencies, distance to goal and other parameters were recorded and compared between groups to assess the compound's activity.

serotonin transporter = target: T1, serotonin transporter (Homo sapiens, UniProt P31645); test: Serotonin transporter binding radioligand inhibition ([3H]-imipramine); settings: concentration 5 μM
T1 construct: expressed in transfected cells; host or cells: CHO cells
T1 sequence (P31645 whole entry): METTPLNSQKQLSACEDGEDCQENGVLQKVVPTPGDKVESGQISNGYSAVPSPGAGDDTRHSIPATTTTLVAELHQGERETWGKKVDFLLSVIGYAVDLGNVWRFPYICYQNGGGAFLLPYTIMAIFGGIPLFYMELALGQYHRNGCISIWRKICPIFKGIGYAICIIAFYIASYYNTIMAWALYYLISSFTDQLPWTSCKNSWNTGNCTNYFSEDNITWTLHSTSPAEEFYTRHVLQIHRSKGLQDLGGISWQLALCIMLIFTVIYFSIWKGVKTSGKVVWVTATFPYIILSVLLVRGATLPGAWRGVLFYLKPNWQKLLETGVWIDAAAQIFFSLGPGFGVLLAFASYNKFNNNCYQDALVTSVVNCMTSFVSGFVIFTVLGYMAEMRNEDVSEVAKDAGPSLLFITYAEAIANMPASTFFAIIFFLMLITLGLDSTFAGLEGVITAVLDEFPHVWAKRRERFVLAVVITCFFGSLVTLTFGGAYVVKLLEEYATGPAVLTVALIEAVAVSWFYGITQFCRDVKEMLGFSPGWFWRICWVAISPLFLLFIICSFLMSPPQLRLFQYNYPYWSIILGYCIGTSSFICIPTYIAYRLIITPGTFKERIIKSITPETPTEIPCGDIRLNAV
Text: The serotonin transporter removes serotonin from the synaptic deft. The serotonin transporter terminates the effects of […], enabling its reuse by the presynaptic neuron.

[4] = target: T2, Human dopamine transporters (Homo sapiens, UniProt Q01959); test: Binding to the dopamine transporter ([125I]-RTI-55); settings: 10 μM; read-out: inhibitory effect on [125I]-RTI-55 binding
T2 construct: expressed in transfected cells; host or cells: CHO-K1 cells (membranes)
T2 sequence (Q01959 whole entry): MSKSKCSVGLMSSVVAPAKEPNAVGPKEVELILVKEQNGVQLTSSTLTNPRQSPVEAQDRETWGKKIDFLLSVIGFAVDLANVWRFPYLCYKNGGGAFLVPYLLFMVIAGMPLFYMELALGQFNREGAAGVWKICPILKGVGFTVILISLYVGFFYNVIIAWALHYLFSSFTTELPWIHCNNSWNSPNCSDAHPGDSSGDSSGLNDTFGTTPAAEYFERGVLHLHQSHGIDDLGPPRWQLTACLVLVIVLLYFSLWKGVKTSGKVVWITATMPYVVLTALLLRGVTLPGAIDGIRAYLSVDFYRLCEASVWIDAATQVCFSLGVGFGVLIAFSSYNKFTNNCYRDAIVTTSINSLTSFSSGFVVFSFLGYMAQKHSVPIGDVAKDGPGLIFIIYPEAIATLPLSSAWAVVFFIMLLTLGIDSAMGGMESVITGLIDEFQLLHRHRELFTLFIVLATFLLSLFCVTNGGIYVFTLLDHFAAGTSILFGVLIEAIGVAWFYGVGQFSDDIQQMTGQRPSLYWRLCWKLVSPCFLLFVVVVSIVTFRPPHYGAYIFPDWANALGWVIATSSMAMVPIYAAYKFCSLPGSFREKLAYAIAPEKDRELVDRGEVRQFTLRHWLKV
Method: Human dopamine transporters expressed in CHO—K1 cells are used in modified Tris-HCl buffer at pH 7.4. […] Non-specific binding is estimated in the presence of […] nomifensine.

[5] = acute administration, test session

## CNCCC(Oc1ccc(CCO)cc1)c1ccccc1.Cl (single isomer, unassigned) [Example 2, 2-[4-[3-(Methylamino)-1-phenylpropoxy]phenyl]ethanol hydrochloride]
Mice [1]; [5]
  time familiar object: 24.4%
  time new object: 75.5%
Mice [1]; acute conditions
  discrimination of the two objects vs saline group: discriminated the two objects better
Mice [2]; 3 mg/kg oral
  analgesic activity following formalin challenge (hind paw licking time): significant analgesic activity
Mice [2]; 30 mg/kg intraperitoneal
  analgesic activity following formalin challenge (hind paw licking time): significant analgesic activity
Mice [2]; 30 mg/kg oral
  analgesic activity following formalin challenge (hind paw licking time): significant analgesic activity
Mice [2]; 90 mg/kg oral
  analgesic activity following formalin challenge (hind paw licking time): significant analgesic activity
[3]; J20 mice
  visuospatial memory and learning: positive effect in some sessions
[3]; old wild type mice
  visuospatial memory and learning: increase in visuospatial memory and learning
Serotonin transporter
  inhibition at 5 µM: 82%
[4]
  inhibition at 10 µM: 88%
